# Marks after values point to notes of the source that are not given here.
# Assays:
# [1] = molecular target: PPO (monophenolase) (Agaricus bisporus, UniProt C7FF04); assay: PPO activity assay, monophenolase (L-tyrosine oxidation); assay type: biochemical, mushroom
# Experimental: To determine the monophenolase inhibitory activity of hesperetin, PPO (0.2 μΜ) was mixed with various concentrations of hesperetin (0, 25, 50, 100, 150, 200, 250 and 500 μM), and the mixtures were incubated at 30 °C. After 1 h, L-tyrosine (0.5 mΜ, substrate) was added to the mixtures, and the detection began.
# [2] = molecular target: PPO (Agaricus bisporus, UniProt C7FF04); assay: Kinetic analysis of inhibitory type (v vs [PPO], Lineweaver–Burk plots, L-dopa); assay type: biochemical, mushroom; conditions: for inhibitory type: Lineweaver–Burk plots, hesperetin 0, 300, 600, 1200 μM
# Text: The inhibitory type of hesperetin against PPO could be evaluated using Lineweaver–Burk plots, and the mixed inhibition was described through Equation (1):(1) 1/v=Km/Vmax(1+[I]/Ki)1/[S]+1/Vmax(1+[I]/αKi) where v and Vmax represent enzyme reaction velocity and its maximum value, respectively. [I], [S] and Km are the concentrations of hesperetin and L-dopa, and the Michaelis–Menten constant, respectively. α denotes the apparent coefficient and Ki represents dissociation constant of hesperetin binding with free PPO, which can be calculated using the secondary Equations (2) and (3). (2) Slope=Km/Vmax+Km[I]/VmaxKi (3) Y-intercept=1/Vmaxapp=1/Vmax+1/αVmaxKi[I]
# At different concentrations of hesperetin, the effect on the enzymatic reaction rate (ΔOD/min) by increasing the concentrations of PPO were shown in Figure 1E. […] As the concentration of hesperetin increased, the slopes of the lines declined.
# Four lines intersected in the second quadrant. Either the slopes or the Y-intercept of four lines augmented with the rising concentrations of hesperetin, which represented the values of Km increased in a concentration-dependent manner while that of Vmax decreased. […] The inhibition mechanism of hesperetin against PPO deserved further exploration. […] Thus, hesperetin may have a better chance to bind with free PPO instead of PPO–hesperetin complex.
# [3] = tested on: T1, PPO; assay: Fluorometric titration (fluorescence quenching of PPO); assay type: binding, mushroom
# T1 construct: purchased Worthington Biochemical Co. (Lakewood, CO, USA)
# Experimental: Fluorescence spectra were measured at 298, 304 and 310 K by a fluorophotometer (F–7000, Hitachi, Tokyo, Japan). Briefly, the concentration of PPO was 2.0 μM, and the same volume of hesperetin was added into the PPO solution (2.0 mL) 10 times (0→25.0 μM). After each addition of hesperetin, 3 min was timed to equilibrate the mixed system. Then, the emission spectra (290–500 nm) were scanned at fixed excitation wavelength (280 nm).
# To deduct the effect of internal filtration, all measured fluorescence data were processed through Formula (5):(5) FC=FMe^(A1+A2)/2 where FC and FM represent the corrected and detected fluorescence, respectively. A1 and A2 stand for the absorbance values of hesperetin at excitation and emission wavelengths, respectively.
# The Stern–Volmer curves for PPO fluorescence quenched by hesperetin at each temperature were obtained through Equation (6):(6) F0/F=1+Kqτ0[Q]=1+Ksv[Q] where F and F0 denote the fluorescence intensity of PPO with and without hesperetin, respectively. Ksv, Kq and [Q] represent the fluorescence quenching constant, quenching rate constant and the concentration of hesperetin, respectively. τ0 represents the average fluorophore lifetime without hesperetin, and its value is usually equal to 10^−8 s.
# Based on the following equation, the information about the interaction between hesperetin and PPO were obtained, including binding constant (Ka) and binding number (n):(7) logF0−F/F=nlogKa−nlog1/[Qt]−(F0−F)[Pt]/F0 where [Qt] and [Pt] stand for the concentrations of hesperetin and PPO. […] The n values at 298, 304 and 310 K were all equal to 1, implying that only one site existed when hesperetin interacted with PPO.
# The values of ΔH°, ΔS° and ΔG°, which refer to enthalpy change, entropy change and free energy change, respectively, were obtained by the van ’t Hoff equations [42]:(8) logKa=−ΔH°/2.303RT+ΔS°/2.303R (9) ΔG°=ΔH°−TΔS° where T represents temperature; R represents gas constant, and its value is 8.314 J mol^−1 K^−1.
# [4] = tested on: PPO; set-up: method as in PMID 22093614; conditions: cited from earlier work
# [5] = molecular target: monophenolase; set-up: method as in PMID 28873682; conditions: previous study; read-out: IC50 on the inhibition of monophenolase activity; cited from earlier work
# Sequence of PPO (Agaricus bisporus, UniProt C7FF04) (C7FF04 1-392): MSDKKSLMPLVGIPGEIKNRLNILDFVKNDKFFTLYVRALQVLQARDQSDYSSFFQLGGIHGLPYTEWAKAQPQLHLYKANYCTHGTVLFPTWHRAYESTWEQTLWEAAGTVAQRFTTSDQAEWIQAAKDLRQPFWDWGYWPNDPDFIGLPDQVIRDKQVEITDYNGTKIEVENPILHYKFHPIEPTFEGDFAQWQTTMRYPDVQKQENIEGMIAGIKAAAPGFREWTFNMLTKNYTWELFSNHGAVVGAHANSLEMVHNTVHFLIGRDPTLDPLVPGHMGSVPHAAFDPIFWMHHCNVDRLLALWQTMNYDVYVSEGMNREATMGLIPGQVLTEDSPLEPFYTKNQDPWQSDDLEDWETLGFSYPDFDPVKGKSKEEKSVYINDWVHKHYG
# Sequence of PPO (Agaricus bisporus, UniProt C7FF04) (G1K3P4 entry or part of it, further chain): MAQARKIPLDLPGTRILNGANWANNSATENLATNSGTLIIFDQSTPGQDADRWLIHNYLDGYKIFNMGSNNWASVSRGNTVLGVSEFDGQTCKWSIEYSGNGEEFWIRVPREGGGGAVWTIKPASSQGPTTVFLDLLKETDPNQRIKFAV
# Sequence of PPO (monophenolase) (C7FF04 1-392): as the sequence (C7FF04 1-392) above
# Sequence of PPO (monophenolase) (G1K3P4 1-150 partner): as the sequence (G1K3P4 entry or part of it, further chain) above
smiles,measurement,setting,value
"COc1ccc([C@@H]2CC(=O)c3c(O)cc(O)cc3O2)cc1O [hesperetin, Hesperetin]",lag time of L-tyrosine oxidation,"[1]; hesperetin at 500.0 μM, extended from 1.08 min without inhibitor",10.33 min
same,remaining activity at 100 µM,[1]; read-out: residual activity of PPO (monophenolase),41.2%
same,α (apparent coefficient),"[2]; L-dopa substrate, mixed inhibition model",2.93
same,inhibitory type,[2],mixed-type inhibitor
same,inhibitory type,[2]; listed as Hesperetin,mixed inhibitor
same,reversibility of inhibition,"[2]; plots of v versus [PPO], L-dopa 0.5 mM",reversibly inhibited
same,Kq (quenching rate constant),"[3]; 298, 304 and 310 K, τ0 = 10^−8 s, compared with maximum diffusion collision quenching constant",> 2e+10 M⁻¹ s⁻¹
same,Ka,[3]; 298 K,19800 L/mol
same,Ka (binding constant),[3]; 298 K,1.98 ± 0.01 ^a ×10^4 L mol^−1
same,Ksv,[3]; 298 K,(1.71 ± 0.01) × 10^4 L mol^−1
same,Ksv (quenching constant),[3]; 298 K,1.71 ± 0.01 ^a ×10^4 L mol^−1
same,n (number of binding sites),[3]; 298 K,1.23 ± 0.03
same,Ka,[3]; 304 K,20500 L/mol
same,Ka (binding constant),[3]; 304 K,2.05 ± 0.02 ^b ×10^4 L mol^−1
same,Ksv,[3]; 304 K,(1.76 ± 0.02) × 10^4 L mol^−1
same,Ksv (quenching constant),[3]; 304 K,1.76 ± 0.02 ^b ×10^4 L mol^−1
same,n (number of binding sites),[3]; 304 K,1.08 ± 0.01
same,Ka,[3]; 310 K,22200 L/mol
same,Ka (binding constant),[3]; 310 K,2.22 ± 0.05 ^c ×10^4 L mol^−1
same,Ksv,[3]; 310 K,(2.09 ± 0.02) × 10^4 L mol^−1
same,Ksv (quenching constant),[3]; 310 K,2.09 ± 0.02 ^c ×10^4 L mol^−1
same,n (number of binding sites),[3]; 310 K,0.99 ± 0.04
same,n values,"[3]; at 298, 304 and 310 K",1
same,inhibitory type (previous study),[4],competitive PPO inhibitor
O=c1c(O)c(-c2ccc(O)c(O)c2)oc2cc(O)cc(O)c12 [quercetin],IC50,[5],19.4 ± 0.35 µM

# From PMC9957399, “New Insights into the Inhibition of Hesperetin on Polyphenol Oxidase: Inhibitory Kinetics, Binding Characteristics, Conformational Change and Computational Simulation” (Foods, 2023)
